Measurements taken from article PMC8424217 (The Journal of Biological Chemistry, 2021).
Peptide text beside a SMILES is read from it. * marks the point of attachment. Palmitoyl = CCCCCCCCCCCCCCCC(=O)*

Columns and labels:
[1] = tested on: HEK 293 cells
Protocol: Pepducins are composed of a synthetic peptide, mimicking an intracellular GPCR loop, to which a hydrophobic moiety, most commonly the fully saturated C16 fatty acid palmitate, is conjugated at their N-termini ([39]). […] The second pepducin ([Trp^1, Leu^2]hUT-Pep3) comprises the hUT ICL3 sequence; however, the first two N-terminal amino acids were replaced by the corresponding residues from rat UT ICL3 (-Arg-Arg-in hUT and -Trp-Leu- in rUT).
Toxicity of hUT-derived pepducins was evaluated using (A) MTT or (B) LDH assays in HEK 293-hUT cells.
HEK 293 cells were seeded at a density of 2 × 10^4 cells/well in 96 well-plates and cultured at 37 °C for 24 h. Cells were then incubated in serum-free media with hUT-derived pepducins at various concentrations (10^−8 M–10^−4 M). Viability was assessed with an MTS kit (CellTiter 96 AQueous, Promega) and a microplate reader (MTX^TC Revelation, Dynex Tech) in order to determine the optical density related to the conversion of MTS into purple-colored water-soluble formazan. Positive control (cells treated with 10% DMSO) and negative control (nontreated cells) were included in each experiment. Results were expressed as the percentage of control (nontreated cells). The presence of lactate dehydrogenase (LDH), released in the culture medium from dead cells, was also determined using a commercial LDH kit (BioVision). Positive control (cells treated with lysis buffer) and negative control (nontreated cells) were included in each experiment. Results were expressed as the percentage of the maximum LDH release following cell lysis.

[2] = Solution NMR conformational analysis in DPC micelles; format: physicochemical; conditions: pH 5.5, 25 °C, restrained MD calculations
Protocol: Samples for NMR spectroscopy were prepared by dissolving the appropriate amount of peptide in 0.54 ml of ^1H2O (pH 5.5), 0.06 ml of ^2H2O to obtain a final DPC-d38 concentration of 2 mM and 200 mM. NMR spectra were recorded on a Varian INOVA 700 MHz spectrometer equipped with a z-gradient 5 mm triple-resonance probe head. All spectra were recorded at a temperature of 25 °C and were calibrated relative to TSP (0.00 ppm) as internal standard. One-dimensional (1D) NMR spectra were recorded in the Fourier mode with quadrature detection. The water signal was suppressed by gradient echo ([70]). Two dimensional (2D) DQF-COSY ([71], [72]), TOCSY ([73]), and NOESY ([74]) spectra were recorded in the phase-sensitive mode as described ([75]). Data block sizes were 2048 addresses in t2 and 512 equidistant t1 values. […] The qualitative and quantitative analyses of DQF-COSY, TOCSY, and NOESY spectra were obtained using the interactive program package XEASY ([76]). Complete ^1H NMR chemical shift assignments were effectively achieved for hUT-Pep2 and [Trp^1, Leu^2]hUT-Pep3 according to the Wüthrich procedure ([77]) via the usual systematic application of DQF-COSY, TOCSY, and NOESY experiments with the support of the XEASY software package (Tables S1 and S3). ^3JαN coupling constants were measured by 1D proton and DQF-COSY spectra. […]

| Structure (SMILES) | effect on cell viability at 10^−4 M [1] | effect on cell viability up to 10^−5 M [1] | conformation by NMR [2] |
| --- | --- | --- | --- |
| CCCCCCCCCCCCCCCC(=O)N[C@@H](Cc1c[nH]c2ccccc12)C(=O)N[C@@H](CC(C)C)C(=O)N[C@@H](CO)C(=O)N[C@@H](CCC(N)=O)C(=O)N[C@@H](CCCNC(=N)N)C(=O)N[C@@H](C)C(=O)N[C@@H](CO)C(=O)N[C@@H](Cc1ccccc1)C(=O)N[C@@H](CCCCN)C(=O)N[C@@H](CCCNC(=N)N)C(=O)N[C@@H](C)C(=O)N[C@@H](CCCNC(=N)N)C(=O)N[C@@H](CCCNC(=N)N)C(N)=O [[Trp^1, Leu^2]hUT-Pep3] (Palmitoyl-WLSQRASFKRARR-NH2) | as cytotoxic as unmodified hUT-Pep3 at 10^−7 M | did not significantly affect HEK 293 cell viability | high tendency of [Trp^1, Leu^2]hUT-Pep3 to fold into a helix |
| CCCCCCCCCCCCCCCC(=O)N[C@@H](CCCNC(=N)N)C(=O)N1CCC[C@H]1C(=O)N[C@@H](CC(C)C)C(=O)N[C@@H](CC(=O)O)C(=O)N[C@H](C(=O)N[C@H](C(=O)N[C@@H](CCC(N)=O)C(=O)N[C@@H](CCCNC(=N)N)C(=O)N1CCC[C@H]1C(=O)N[C@@H](CCCCN)C(=O)NCC(=O)N[C@@H](Cc1ccc(O)cc1)C(N)=O)C(C)C)[C@@H](C)O [hUT-Pep2] (Palmitoyl-RPLDTVQRPKGY-NH2) | as cytotoxic as unmodified hUT-Pep3 at 10^−7 M | did not significantly affect HEK 293 cell viability | two type I β-turns along residues 1–4 and 3–6 and three distorted (type IV) β-turns along residues 4–7, 5–8, and 6–9 |
